The target in one test is T1, PLK4 (h) (Homo sapiens, UniProt O00444).
T1 sequence (O00444 1-970): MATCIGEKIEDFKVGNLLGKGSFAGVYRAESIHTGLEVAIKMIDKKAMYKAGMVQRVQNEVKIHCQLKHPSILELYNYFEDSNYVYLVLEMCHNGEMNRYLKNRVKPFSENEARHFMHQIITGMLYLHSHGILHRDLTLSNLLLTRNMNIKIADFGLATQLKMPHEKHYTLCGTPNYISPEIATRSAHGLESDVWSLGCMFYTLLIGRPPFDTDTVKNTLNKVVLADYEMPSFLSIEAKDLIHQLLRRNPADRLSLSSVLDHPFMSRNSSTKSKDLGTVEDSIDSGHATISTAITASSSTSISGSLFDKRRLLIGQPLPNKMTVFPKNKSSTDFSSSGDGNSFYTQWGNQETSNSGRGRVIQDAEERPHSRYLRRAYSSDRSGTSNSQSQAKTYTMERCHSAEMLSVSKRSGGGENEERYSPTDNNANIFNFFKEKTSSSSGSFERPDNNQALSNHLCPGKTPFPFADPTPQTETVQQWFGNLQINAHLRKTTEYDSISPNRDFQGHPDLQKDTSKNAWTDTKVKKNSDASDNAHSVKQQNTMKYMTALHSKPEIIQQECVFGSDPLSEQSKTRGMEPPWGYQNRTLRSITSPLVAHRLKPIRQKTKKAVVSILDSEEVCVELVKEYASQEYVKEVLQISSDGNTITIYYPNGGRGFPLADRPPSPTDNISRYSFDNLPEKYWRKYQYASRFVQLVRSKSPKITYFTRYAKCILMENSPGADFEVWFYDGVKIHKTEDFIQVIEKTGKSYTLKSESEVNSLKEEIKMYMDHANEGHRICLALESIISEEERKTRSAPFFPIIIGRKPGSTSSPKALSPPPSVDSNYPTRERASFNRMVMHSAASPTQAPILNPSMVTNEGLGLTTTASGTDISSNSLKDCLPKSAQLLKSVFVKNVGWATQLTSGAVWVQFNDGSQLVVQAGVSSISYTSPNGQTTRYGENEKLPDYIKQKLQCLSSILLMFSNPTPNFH
The test is described as follows: PLK-4 human kinase scintillation proximity assay (SPA). The class given is biochemical. Particulars: 1 μM ATP, 60 minutes at r.t., read-out: PLK4 pIC50 (converted). An outline of the steps:
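Scintillation proximity read-out: EDTA-stopped reactions were captured on streptavidin SPA beads after PLK4 (19 μg/ml) had phosphorylated 10 μM biotin-peptide for 60 min at room temperature, using 1 μM ATP spiked with 2 nM 33P-ATP in pH 8.0 HEPES buffer.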
(In general: In a scintillation proximity assay essentially only radioactivity close to the scintillant gives light.)

The next test has as its system U87-MG. The test is described as follows: Cellular proliferation assay (Alamar blue), U87-MG. The class given is cell-based. The conditions noted are these: Homo sapiens, U-87 MG; U87-MG cells; 10% FCS; 72 h with compound; Alamar blue 6 h; read-out: pIC50 U87MG (converted). An outline of the steps:
(§1)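 Read-out: resazurin-based Alamar blue fluorescence at 544/590 nm, with dye left 24 h on PC3 and A2780, 6 h on U87-MG and 4 h on HCT-116. Beforehand, cells grew 24 h compound-free, then 72 h with compound, in 10% FCS at 37° C./5% CO2. Values are expressed against untreated controls.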
For orientation: The colour change of resazurin is a common sign of viable cells or microbes.

For a further test, the system named is H1299. Kind of test: Cellular proliferation assay (Alamar blue), H1299. Particulars: Homo sapiens, NCI-H1299, H1299 cells; 10% FCS; 72 h with compound; Alamar blue 4 h; read-out: pIC50 H1299 (converted). The test is classed as cell-based. The method, boiled down:
(§2)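 Viable cell number is determined by Alamar blue conversion after cells are treated with compound for 72 hours, following 24 hours of growth without compound in 10% FCS. The effect is calculated against control cells.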

Another test concerns HCT-116. The test is described as follows: Cellular proliferation assay (Alamar blue), HCT-116. The conditions noted are these: Homo sapiens; HCT-116 cells; 10% FCS; 72 h with compound; Alamar blue 4 h; read-out: pIC50 HCT-116 (converted). The class given is cell-based. The method, boiled down:
as §1

The test system of a further test is A2780. Kind of test: Cellular proliferation assay (Alamar blue), A2780. The test is classed as cell-based. The conditions noted are these: Homo sapiens, A2780, A2780 cells; 10% FCS; 72 h with compound; Alamar blue 24 h; read-out: pIC50 A2780 (converted). An outline of the steps: as §1
The next test concerns PC3. Kind of test: Cellular proliferation assay (Alamar blue), PC3. The test is classed as cell-based. Particulars: Homo sapiens, PC-3, PC-3 cells; 10% FCS; 72 h with compound; Alamar blue 24 h; read-out: pIC50 PC-3 (converted). The method, boiled down: as §1
Another test relates to MDA-MB-231. Kind of test: Cellular proliferation assay (Alamar blue), MDA-MB-231. Particulars: Homo sapiens, MDA-MB-231, MDA-MB-231 cells; 10% FCS; 72 h with compound; Alamar blue 24 h; read-out: pIC50 MDA/MB231 (converted). The class given is cell-based. An outline of the steps:
as §2

In the case of `CN1CCCN(C)C(=O)CCc2cc(ccc2N2CCOCC2)Nc2ncnc3[nH]cc(c23)C1` [Compound 56], the IC50 was 5.01 µM at PLK4 (h); greater than 10 µM with U87-MG; greater than 10 µM in the test with H1299; greater than 10 µM in the test with HCT-116; greater than 10 µM with A2780; greater than 10 µM in the test on PC3. The IC50 in the test on MDA-MB-231 was greater than 10 µM.
Consider `COc1cc2cc(c1OC)OCC(=O)N(C)CCCN(C)Cc1c[nH]c3ncnc(c13)N2` [Compound 57], for which the IC50 at PLK4 (h) is 3.98 µM; in the test on U87-MG, greater than 10 µM; with H1299, greater than 10 µM; in the test on HCT-116, greater than 10 µM; with A2780, greater than 10 µM; with PC3 it was greater than 10 µM. Moreover, the IC50 with MDA-MB-231 was greater than 10 µM.
In the case of `CN1CCN(C)C(=O)COc2cccc(c2)Nc2ncnc3[nH]cc(c23)C1` [Compound 58], the IC50 at PLK4 (h) is 0.0501 µM; in the test with U87-MG, 6.31 µM; with H1299 it was 5.01 µM; with HCT-116, 2.51 µM; in the test on A2780, 3.16 µM; with PC3 it was 7.94 µM. Also, the IC50 in the test on MDA-MB-231 was 10 µM.
As for `COc1ccc2cc1OCC(=O)N(C)CCCN(CC1CC1)Cc1c[nH]c3ncnc(c13)N2` [Compound 59], the IC50 on PLK4 (h) is 0.158 µM; in the test on U87-MG, greater than 10 µM; in the test with H1299, greater than 10 µM; in the test on HCT-116 it was greater than 10 µM; in the test on A2780, greater than 10 µM; with PC3, greater than 10 µM. Also, the IC50 in the test with MDA-MB-231 is greater than 10 µM.
As for `COc1ccc2cc1OCC(=O)N(C)CCN(C)CCCc1c[nH]c3ncnc(c13)N2` [Compound 60], the IC50 at PLK4 (h) is 1 µM; in the test on U87-MG it was greater than 10 µM; in the test with H1299 it was greater than 10 µM; in the test on HCT-116, greater than 10 µM; in the test with A2780, greater than 10 µM; in the test on PC3 it was greater than 10 µM. The IC50 in the test with MDA-MB-231 is greater than 10 µM.
Turning to `COc1ccc2cc1OCC(=O)N(C)CCCN(Cc1ccccc1)Cc1c[nH]c3ncnc(c13)N2` [Compound 61], the IC50 was 0.1 µM on PLK4 (h); greater than 10 µM in the test on U87-MG; greater than 10 µM in the test with H1299; greater than 10 µM in the test on HCT-116; greater than 10 µM in the test with A2780; greater than 10 µM with PC3. Moreover, the IC50 in the test on MDA-MB-231 was greater than 10 µM.
Regarding `COc1ccc2cc1OCC(=O)N(C)CCCN(Cc1ccncc1)Cc1c[nH]c3ncnc(c13)N2` [Compound 62], the IC50 at PLK4 (h) is 0.631 µM; in the test on U87-MG, greater than 10 µM; in the test with H1299, greater than 10 µM; in the test with HCT-116, greater than 10 µM; in the test on A2780 it was greater than 10 µM; in the test on PC3, greater than 10 µM. Further, the IC50 with MDA-MB-231 is greater than 10 µM.
Turning to `CCOc1ccc2cc1OCC(=O)N(C)CCCN(C)Cc1c[nH]c3ncnc(c13)N2` [Compound 63], the IC50 at PLK4 (h) was 0.0794 µM; with U87-MG, 2 µM; with H1299, 2 µM; in the test with HCT-116 it was 0.631 µM; in the test on A2780 it was 0.501 µM; in the test with PC3, 2.51 µM. The IC50 with MDA-MB-231 is 3.16 µM.
Take `COc1ccc2cc1OCC(=O)N(C1CCCCC1)CCCN(C)Cc1c[nH]c3ncnc(c13)N2` [Compound 64]: the IC50 at PLK4 (h) is 0.251 µM; with U87-MG, greater than 10 µM; with H1299 it was greater than 10 µM; in the test with HCT-116, greater than 10 µM; in the test on A2780, greater than 10 µM; in the test on PC3, greater than 10 µM. Also, in the test with MDA-MB-231, the IC50 is greater than 10 µM.
Consider `COc1ccc2cc1OCC(=O)N(C)CCCNCc1c[nH]c3ncnc(c13)N2` [Compound 65], for which the IC50 was 0.0794 µM at PLK4 (h); greater than 10 µM with U87-MG; greater than 10 µM in the test on H1299; greater than 10 µM in the test with HCT-116; greater than 10 µM with A2780; greater than 10 µM in the test with PC3. In addition, in the test on MDA-MB-231, the IC50 was greater than 10 µM.
For `CN1CCCN(C)C(=O)COc2cc(ccc2NC(=O)NC2CCCC2)Nc2ncnc3[nH]cc(c23)C1` [Compound 66], the IC50 at PLK4 (h) was 0.0398 µM; with U87-MG, 1.58 µM; in the test with H1299 it was greater than 10 µM; with HCT-116 it was 5.01 µM; in the test with A2780 it was greater than 10 µM; in the test with PC3 it was 7.94 µM. Also, the IC50 with MDA-MB-231 was greater than 10 µM.

(Values after patent US8318731B2, “Pyrrolopyrimidines” (Janssen Pharmaceutica NV, priority 2007, dated 2012).)
